Data on 15 compounds can be found in article PMC7751407, “Novel oxindole/benzofuran hybrids as potential dual CDK2/GSK-3β inhibitors targeting breast cancer: design, synthesis, biological evaluation, and in silico studies” (Journal of Enzyme Inhibition and Medicinal Chemistry, 2020).

For one data set, the target named is T1, CDK2 (Homo sapiens, UniProt P24941).
T1 construct: purchased Promega, Milan, Italy V2971
Description: CDK2 kinase inhibition (CDK2 Kinase Enzyme System, Promega). It counts as biochemical. As to conditions: mean ± SD of three separate experiments. The method, then: (§1) 2. CDK2/GSK-3β Kinase Inhibitory Activities
(§2) The CDK2 and GSK-3β inhibitory activities were determined for hybrids 5a-g using the CDK2
(§3) Kinase Enzyme System (catalog No. V2971) (Promega, Milan, Italy), and GSK3β Assay Kit

A further data set deals with T-47D. Description: MTT anti-proliferative assay, T-47D breast cancer cells. In kind it is cell-based. The settings on record: Homo sapiens, T47D, 48 h exposure, mean ± SD of three separate experiments. The method, then: (§4) 1. Anti-proliferative activity toward human breast cell lines
(§5) The two examined human breast cancer cell lines (T-47D and MCF-7) have been obtained from American Type Culture Collection (ATCC). Cells lines were maintained as monolayers in Dulbecco’s Modified Eagle’s Medium (DMEM) supplemented with 10% FBS, 2 mM L-glutamine, 100 U/ml penicillin and 100µg/ml streptomycin sulfate. Cells were sub-cultured with trypsine /EDTA solution, counted with haemocytometer and plated onto 96-well plates (5000 cells/well) and left overnight to form a semi-confluent monolayer. Cell monolayers were treated in quadrates with vehicle (DMSO, 0.1% v/v), test samples or Adriamycin as positive control for an exposure time of 48 h. At the end of exposure, MTT solution in PBS (5 mg/ml) was then added to all well including no cell blank and left to incubate for 90 min. The formation of formazan crystals were visually confirmed using phase contract microscopy. DMSO (100 µl/well) was added to dissolve the formazan crystals with shaking for 10 min after which the absorbance was read at 590 nm against no cell blanks on a FLuo Star Optima microplate reader (BMG technologies, Germany).
(§6) Cell proliferation was calculated comparing the OD values of the DMSO control wells and those of the samples represented as % proliferation to the control. Dose-response experiment was performed on samples producing > or =50% loss of cell proliferation using five serial 2-fold […]
(§7) IC50 values (concentration of sample causing 50% loss of cell proliferation of the vehicle control) were calculated using non-linear regression curve fitting of the dose response plots on GraphPad Prism V.6.0 software. […]
For orientation: Tetrazolium assays rely on reduction of a dye to a coloured formazan, in cell work by metabolically active cells.

The next data set has as its target T2, GSK-3β (Homo sapiens, UniProt P49841).
T2 construct: purchased BPS Biosciences, San Diego, CA, USA 79700
Nature of the data set: GSK-3β kinase inhibition (GSK3β Assay Kit, BPS Biosciences). It counts as biochemical. As to conditions: mean ± SD of three separate experiments. The method, then:
as §1, §2, §3

The next data set deals with MCF-7. Nature of the data set: MTT anti-proliferative assay, MCF-7 breast cancer cells. It counts as cell-based. As to conditions: Homo sapiens, MCF7, 48 h exposure, mean ± SD of three separate experiments. How it is done: as §4, §5, §6, §7
In data set [1] the test system is MCF-7 cells. Description: Annexin V-FITC/PI dual staining apoptosis assay in MCF-7 cells. It counts as cell-based, human. The settings on record: at IC50 concentration. How it is done: To investigate further the effect of the promising compounds 5d, 5e, and 5f on cell apoptosis, Annexin V-FITC/propidium iodide dual staining assay was performed according to the reported method. The morphological markers of apoptosis in the breast cancer MCF-7 cell line were examined before and after treatment with the compounds of interest. Apoptosis assay depends on the translocation of the phosphatidylserine (PS) phospholipid to the cell surface in cells undergoing apoptosis which can be easily detected by staining with the fluorescent conjugate of annexin V followed by flow cytometry analysis. Simultaneously, MCF-7 cells were stained with propidium iodide (PI) which could enter cells with damaged plasma membranes only. This enables the discrimination between early apoptotic cells (positive for PS, but negative for PI) from late apoptotic and necrotic cells (positive for both PS and PI). […]
4. Annexin V-FITC Apoptosis Assay
Phosphatidylserine externalization was assayed using Annexin V-FITC/PI apoptosis detection kit (BD Biosciences, USA) according to the manufacturer’s instructions. Breast cancer MCF-7 cells were cultured to a monolayer then treated with hybrids (5d, 5e and 5f) at their IC50 concentration. Briefly, cells were then harvested via trypsinization, and rinsed twice in PBS followed by binding buffer. Moreover, cells were re-suspended in 100 μL of binding buffer with the addition of 1 μL of FITC-Annexin V followed by an incubation period of 30 min at 4 °C. Cells were then rinsed in binding buffer and resuspended in 150 μL of binding buffer with the addition of 1 μL of DAPI (1 μg/μL in PBS). Cells were then analyzed using the flow cytometer BD FACS Canto II and the results were interpreted with FlowJo7.6.4 software (Tree Star, Ashland, OR,

The test system of data set [2] is MCF-7 cells. Description: Cell cycle analysis by flow cytometry (PI stain) in MCF-7 cells. The settings on record: 24 h, at IC50 concentration. It counts as cell-based, human. The method, then:
Compounds showing promising antiproliferative as well as kinase inhibitory activity 5d, 5e and 5f were further investigated for their influence on the cell cycle progression by flow cytometry analysis using propidium iodide (PI) stain. Cell cycle parameters were compared for the breast cancer MCF-7 cells with DMSO as control and after treatment with the compounds of interest and incubation for 24 h, and the results were presented in Figure 5 and Table 3. […]
concentration), and then cells were washed twice with ice-cold phosphate buffered saline (PBS).
Subsequently, the treated cells were collected by centrifugation, fixed in ice-cold 70% (v/v) ethanol, washed with PBS, re-suspended with 100 μg/mL RNase, stained with 40 μg/mL PI, and analyzed by flow cytometry using FACS Calibur (Becton Dickinson, BD, Franklin Lakes, NJ,

The next data set has as its system MCF-10A. Description: MTT cytotoxicity towards non-tumorigenic breast cells MCF-10A. It counts as cell-based, human.
Source text: In order to investigate their selectivity on cancer cells, hybrids 5d, 5e and 5f, endowed with dual growth inhibitory action against MCF-7 and T-47D cells, were assesses for their cytotoxic action towards the non-tumorigenic breast cells (MCF-10A), via the MTT assay. The obtained IC50s and the calculated mean tumour selectivity index (S.I.); IC50 for MCF-10A/IC50 average for (MCF-7 and T-47D) have been presented in Table 5.
as §4, §5
Cell proliferation was calculated comparing the OD values of the DMSO control wells and those of the samples represented as % proliferation to the control. Dose-response experiment was performed on samples producing > or =50% loss of cell proliferation using five serial 2-fold dilutions (50, 25, 12.5, 6.25 and 3.125 µM) of the sample. IC50 values (concentration of sample causing 50% loss of cell proliferation of the vehicle control) were calculated using non-linear regression curve fitting of the dose response plots on GraphPad Prism V.6.0 software. […]

T2 sequence (P49841 whole entry): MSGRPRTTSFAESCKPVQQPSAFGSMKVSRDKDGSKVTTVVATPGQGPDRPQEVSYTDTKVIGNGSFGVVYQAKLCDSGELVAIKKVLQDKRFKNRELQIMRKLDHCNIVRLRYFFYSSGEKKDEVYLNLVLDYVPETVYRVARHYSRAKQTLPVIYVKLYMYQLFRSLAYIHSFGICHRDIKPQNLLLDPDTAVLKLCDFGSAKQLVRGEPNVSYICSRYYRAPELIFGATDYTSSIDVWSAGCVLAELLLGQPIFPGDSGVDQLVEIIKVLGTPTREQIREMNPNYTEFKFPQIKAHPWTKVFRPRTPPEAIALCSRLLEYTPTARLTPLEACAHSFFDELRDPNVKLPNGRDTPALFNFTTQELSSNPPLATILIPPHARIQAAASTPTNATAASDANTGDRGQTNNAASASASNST

One may read the IC50 as the concentration that gives 50% inhibition. A low value points to greater potency in that assay. In general, melting point refers to the temperature of the solid-liquid transition. Compound `O=C1Nc2ccccc2C1=NNC(=O)c1cc2cc(Br)ccc2o1` [5a, 5-Bromo-N'-(2-oxoindolin-3-ylidene)benzofuran-2-carbohydrazide] had a melting point greater than 300 °C. In addition, the IC50 on CDK2 came to 0.141 ± 0.0077 µM. This compound also had an IC50 in the data set with T-47D of 9.67 ± 0.31 µM. Further, 0.137 ± 0.0075 µM corresponded to half-maximal inhibition at GSK-3β (IC50). Also, inhibition with MCF-7 was half-maximal at 5.47 ± 0.16 µM (IC50).
Taken in the same sequence, the figures for `O=C1Nc2ccc(F)cc2C1=NNC(=O)c1cc2cc(Br)ccc2o1` [5b, 5-Bromo-N'-(5-fluoro-2-oxoindolin-3-ylidene)benzofuran-2-carbohydrazide] were greater than 300 °C, 0.0525 ± 0.0029 µM, 1.27 ± 0.04 µM, 0.212 ± 0.012 µM and 12.9 ± 0.38 µM.
Taken in the same sequence, the figures for `O=C1Nc2ccc(Cl)cc2C1=NNC(=O)c1cc2cc(Br)ccc2o1` [5c, 5-Bromo-N'-(5-chloro-2-oxoindolin-3-ylidene)benzofuran-2-carbohydrazide] were greater than 300 °C, 0.0854 ± 0.0046 µM, 6.03 ± 0.19 µM, 0.102 ± 0.0056 µM and 12.5 ± 0.37 µM.
`O=C1Nc2ccc(Br)cc2C1=NNC(=O)c1cc2cc(Br)ccc2o1` [5d, 5-Bromo-N'-(5-bromo-2-oxoindolin-3-ylidene)benzofuran-2-carbohydrazide] showed a melting point greater than 300 °C. On CDK2, this compound returned an IC50 of 0.0378 ± 0.0021 µM. In the data set with T-47D, this compound displayed an IC50 of 3.82 ± 0.12 µM. In addition, the “Late Apoptosis (Upper Right %)” value with MCF-7 cells [1] (control 0.19) is on record as 10.14%. The “Early Apoptosis (Lower Right %)” value in the data set on MCF-7 cells [1] (control 0.63) is 3.61%. Moreover, the “Total apoptosis (L.R % + U.R %)” value in the data set on MCF-7 cells [1] (control 0.82) was determined as 13.75%. The Necrosis in the data set on MCF-7 cells [1] (upper left quadrant, control 0.49) amounted to 1.56%. For the same compound, the concentration for half-maximal inhibition (IC50) against GSK-3β came out at 0.0321 ± 0.0017 µM. The “%Sub-G1” value in the data set on MCF-7 cells [2] (control 1.29) is on record as 13.27%. Moreover, in the data set on MCF-7 cells [2] (control 11.3), the “%G2/M” value was determined as 30.26%. Further, the “%S” value with MCF-7 cells [2] (control 33.82) is listed as 22.5%. Also, the “%G0-G1” value with MCF-7 cells [2] (control 53.59) is on record as 33.97%. The compound further registered a 50% inhibitory concentration (IC50) in the data set with MCF-7 of 3.41 ± 0.1 µM. Moreover, the IC50 with MCF-10A (Homo sapiens, MCF-10A, MTT assay, non-tumorigenic breast cell line) is 21.7 ± 1.05 µM. Besides, the “Mean tumour selectivity index (S.I.)” value in the data set on MCF-10A (IC50 for MCF-10A/IC50 average for (MCF-7 and T-47D)) was 6.0.
Compound `Cc1cc(C)c2c(c1)C(=NNC(=O)c1cc3cc(Br)ccc3o1)C(=O)N2` [5g, 5-Bromo-N'-(5,7-dimethyl-2-oxoindolin-3-ylidene)benzofuran-2-carbohydrazide] displayed a melting point greater than 300 °C. On CDK2, this compound showed an IC50 of 0.105 ± 0.0057 µM. Besides, the IC50 in the data set on T-47D is 6.65 ± 0.21 µM. This compound also showed an IC50 against GSK-3β of 0.0755 ± 0.0041 µM. In the data set with MCF-7, this compound had a concentration for half-maximal inhibition (IC50) of 12 ± 0.35 µM.
`CN1C(=O)C(=NNC(=O)c2cc3cc(Br)ccc3o2)c2ccccc21` [7a, 5-Bromo-N'-(1-methyl-2-oxoindolin-3-ylidene)benzofuran-2-carbohydrazide] registered a melting point of 260 to 262 °C. Also, in the data set with T-47D, the IC50 worked out at 11.8 ± 1.05 µM. In addition, half-maximal inhibition with MCF-7 (IC50) required 10.4 ± 1.01 µM.
Taken in the same sequence, the figures for `C=CCN1C(=O)C(=NNC(=O)c2cc3cc(Br)ccc3o2)c2ccccc21` [7b, N'-(1-Allyl-2-oxoindolin-3-ylidene)-5-bromobenzofuran-2-carbohydrazide] were 207 to 209 °C, 12.2 ± 0.4 µM and 2.64 ± 0.07 µM.
The corresponding values for `CC(C)CN1C(=O)C(=NNC(=O)c2cc3cc(Br)ccc3o2)c2ccccc21` [7c, 5-Bromo-N'-(1-isobutyl-2-oxoindolin-3-ylidene)benzofuran-2-carbohydrazide] are 216 to 218 °C, 43.3 ± 2.39 µM and 37 ± 1.87 µM.
As to `CCOC(=O)CN1C(=O)C(=NNC(=O)c2cc3cc(Br)ccc3o2)c2ccccc21` [7d, Ethyl-2–(3-(2–(5-bromobenzofuran-2-carbonyl)hydrazono)-2-oxoindolin-1-yl)acetate], the melting point lay within 215 to 216 °C. This compound also displayed an IC50 with T-47D of 19 ± 0.62 µM. In the data set on MCF-7, this compound registered an IC50 of 7.48 ± 0.22 µM.
Taken in the same sequence, the figures for `O=C(NN=C1C(=O)N(Cc2ccccc2)c2ccccc21)c1cc2cc(Br)ccc2o1` [7e, N'-(1-Benzyl-2-oxoindolin-3-ylidene)-5-bromobenzofuran-2-carbohydrazide] were 248 to 250 °C, 11.8 ± 0.38 µM and 8.33 ± 0.24 µM.
Consider `O=C(NN=C1C(=O)N(CCc2ccccc2)c2ccccc21)c1cc2cc(Br)ccc2o1` [7f, 5-Bromo-N'-(2-oxo-1-phenethylindolin-3-ylidene)benzofuran-2-carbohydrazide], for which the melting point was 239 to 241 °C. Further, in the data set with T-47D, the midpoint of inhibition, the IC50, lay at 38.7 ± 1.26 µM. The compound also yielded a half-inhibitory concentration (IC50) in the data set on MCF-7 of 24.7 ± 0.72 µM.
`CC(C)CN1C(=O)C(=NNC(=O)c2cc3cc(Br)ccc3o2)c2cc(Br)ccc21` [7g, 5-Bromo-N'-(5-bromo-1-isobutyl-2-oxoindolin-3-ylidene)benzofuran-2-carbohydrazide] yielded a melting point of 244 to 246 °C. For the same compound, half-maximal inhibition in the data set on T-47D (IC50) was put at 9.67 ± 0.31 µM. Moreover, in the data set with MCF-7, the half-maximal inhibitory concentration (IC50) was found to be 24.8 ± 0.73 µM.
The corresponding values for `O=C(NN=C1C(=O)N(Cc2ccccc2)c2ccc(Br)cc21)c1cc2cc(Br)ccc2o1` [7h, N'-(1-Benzyl-5-bromo-2-oxoindolin-3-ylidene)-5-bromobenzofuran-2-carbohydrazide] are 236 to 237 °C, 1.72 ± 0.04 µM and 4.32 ± 0.12 µM.
Taken in the same sequence, the figures for `CC(C)CN1C(=O)C(=NNC(=O)Nc2cc3cc(Br)ccc3o2)c2ccccc21` [13a, N-(5-Bromobenzofuran-2-yl)-2–(1-isobutyl-2-oxoindolin-3-ylidene)hydrazine-1-carboxamide] were 208 to 210 °C, 3.22 ± 0.1 µM and 18.2 ± 0.53 µM.
The corresponding values for `O=C(NN=C1C(=O)N(Cc2ccccc2)c2ccccc21)Nc1cc2cc(Br)ccc2o1` [13b, 2–(1-Benzyl-2-oxoindolin-3-ylidene)-N-(5-bromobenzofuran-2-yl)hydrazine-1-carboxamide] are 217 to 219 °C, 10.9 ± 0.35 µM and 5.7 ± 0.16 µM.
